Results reported in patent EP2311818B1, “Combination of a 5-phenylthiazole compound as PI3 kinase inhibitor with an antiinflammatory, bronchodilatory or antihistamine drug” (Novartis AG, priority 2003, dated 2003).
pIC50: −log10 of the molar value.

Biological target: T1, recombinant GST-p110y (Homo sapiens, UniProt P48736)
T1 construct: Residues 38-1102 of human P13Ky are subcloned into the BamH1 and EcoR1 sites; made in house; host or cells: Sf9 (Spodoptera frugiperda) insect cells, baculovirus
Experiment: in vitro PI3Kγ kinase assay (Scintillation Proximity Assay, transfer of terminal phosphate of ATP to phosphatidylinositol)
Format: biochemical
Details: 12.5 µM ATP, 15 µg/ml phosphatidylinositol, room temperature, 60 minutes
Method: To express the recombinant protein, Sf9 (Spodoptera frugiperda 9) insect cells are routinely maintained at densities between 3 X 10^5 and 3 X 10^6 cells/ml in serum containing TNMFH medium (Sigma). Sf9 cells, at a density of 2 X 10^6 are infected with human GST-P13KγΔ34 baculovirus at a multiplicity of infection (m.o.i.) of 1 for 72 hours. The infected cells are harvested by centrifugation at 1400 g for 4 minutes at 4° C and the cell pellets are frozen at -80° C. […] The unbound flow through sample is collected by centrifugation at 1000g for 5 minutes at 4° C using a DENLEY™ centrifuge. The 1 ml GST resin containing bound material is transferred to a 15 ml FALCON™ centrifuge tube for subsequent washing and elution steps. Firstly a series of 3 cycles of washings (mixing by gentle inversion) is performed with 15 ml ice cold wash Buffer A (50 mM Tris-HCl pH 7.5, 1 % Triton X-100, 2 mM DTT) interspersed with centrifugation at 1000g for 5 minutes at 4° C. A final single wash step is performed with 15 ml ice cold wash Buffer B (50mM Tris-HCl pH 7.5, 2 mM DTT) and then centrifuged at 1000g for 5 minutes at 4° C. The washed GST resin is finally eluted with 4 cycles of 1 ml ice cold elution buffer (50 mM Tris-HCl pH 7.5, 10 mM reduced glutathione, 2 mM DTT, 150 mM NaCl, 1 mM NaF, 50% ethylene glycol and protease inhibitors) interspersed with centrifugation at 1000g for 5 minutes at 4° C.. Samples are aliquoted and stored at -20° C.
An in vitro kinase assay was established that measures the transfer of the terminal phosphate of adenosine triphosphate to phosphatidylinositol. The kinase reaction is performed in a white 96 well microtitre plate as a Scintillation Proximity Assay. […] The reaction is started by the addition of 20 µl of enzyme mix (40 mM Tris, 200 mM NaCl, 2 mM EGTA containing recombinant GST-p110y).

T1 sequence (P48736 38-1102): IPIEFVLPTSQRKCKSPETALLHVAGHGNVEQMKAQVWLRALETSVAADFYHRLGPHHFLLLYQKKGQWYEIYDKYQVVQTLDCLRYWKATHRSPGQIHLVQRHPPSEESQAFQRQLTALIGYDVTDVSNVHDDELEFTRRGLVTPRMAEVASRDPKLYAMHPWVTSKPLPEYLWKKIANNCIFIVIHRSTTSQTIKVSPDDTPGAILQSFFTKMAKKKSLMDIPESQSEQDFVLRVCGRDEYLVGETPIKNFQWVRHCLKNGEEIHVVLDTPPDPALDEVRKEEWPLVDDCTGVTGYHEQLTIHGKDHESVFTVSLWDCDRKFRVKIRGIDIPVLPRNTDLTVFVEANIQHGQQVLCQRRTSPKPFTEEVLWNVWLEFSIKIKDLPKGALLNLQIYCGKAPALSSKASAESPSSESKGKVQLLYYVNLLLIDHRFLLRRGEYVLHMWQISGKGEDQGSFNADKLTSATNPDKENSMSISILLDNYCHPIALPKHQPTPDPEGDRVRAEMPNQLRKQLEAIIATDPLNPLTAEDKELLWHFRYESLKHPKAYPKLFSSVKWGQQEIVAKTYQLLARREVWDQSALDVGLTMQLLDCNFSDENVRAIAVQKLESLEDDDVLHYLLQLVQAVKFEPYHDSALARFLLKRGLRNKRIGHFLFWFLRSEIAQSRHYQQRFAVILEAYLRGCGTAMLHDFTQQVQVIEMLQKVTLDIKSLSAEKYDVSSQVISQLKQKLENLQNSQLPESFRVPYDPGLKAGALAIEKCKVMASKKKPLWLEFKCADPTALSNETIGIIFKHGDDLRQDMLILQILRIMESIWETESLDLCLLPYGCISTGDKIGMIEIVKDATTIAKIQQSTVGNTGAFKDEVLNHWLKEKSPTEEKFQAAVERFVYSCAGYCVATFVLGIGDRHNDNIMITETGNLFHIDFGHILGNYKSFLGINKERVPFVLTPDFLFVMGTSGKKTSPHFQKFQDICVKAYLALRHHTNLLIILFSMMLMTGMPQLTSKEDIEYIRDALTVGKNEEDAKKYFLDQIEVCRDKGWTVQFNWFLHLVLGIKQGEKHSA

SMILES | pIC50
CC(=O)Nc1nc(C)c(-c2cc(Br)c(S(N)(=O)=O)c(Br)c2)s1 [Example 8, N-[5-(3.5-Dibromo-4-sulfamoyl-phenyl)-4-methyl-thiazol-2-yl]-acetamide] | 8.05
CCc1cnc(CCNC(=O)Nc2nc(C)c(-c3ccc(S(C)(=O)=O)c(F)c3)s2)o1 [Example 178] | 7.40
CCOC(=O)CCNC(=O)Nc1nc(C)c(-c2ccc(S(C)(=O)=O)c(F)c2)s1 [Example 165, 3-{3-[5-(3-Fluoro-4-methanesulfonyl-phenyl)-4-met4l-thiazol-2-yl]-ureido}-propionic acid ethyl ester] | 7.72
CC(=O)Nc1nc(C)c(-c2ccc(S(C)(=O)=O)c(-n3ccnc3)c2)s1 [Example 80, N-[5-(3-Imidazol-1-yl-4-methanesulfonyl-phenyl)-4-methyl-thiazol-2-yl]-acetamide] | 7.89
Cc1nc(NC(N)=O)sc1-c1ccc(Cl)c(S(C)(=O)=O)c1 [Example 138, [5-(4-chloro-3-methanesulfonyl-phenyl)-4-methyl-thiazol-2-yl]-urea] | 8.30
CC(=O)Nc1nc(C)c(-c2ccc(Cl)c(S(C)(=O)=O)c2)s1 [Example 48, N-[5-(4-Chloro-3-methanesulfonyl-phenyl)-4-methyl-thiazol-2-yl]-acetamide] | 7.74
